Reference: PMC10321640, “The VIPR2-selective antagonist KS-133 changes macrophage polarization and exerts potent anti-tumor effects as a single agent and in combination with an anti-PD-1 antibody” (PLOS ONE, 2023)
Where a SMILES comes first, the peptide text is derived from it. Bridges are numbered along the chain shown (N, C = ends).

What was measured:
[1] = tested on: RAW264.7 murine macrophage-like cells; assay: In vitro gene expression of M1-like and M2-like macrophage markers (real-time PCR); assay type: cell-based; settings: RAW264.7 in 20% CT26-CM/DMEM, 3 days
Description: The detailed method and DNA primer sequences were described previously. RAW264.7 murine macrophage-like cells and CT26.WT murine colorectal cancer cells (CRL-2638) were purchased from RIKEN BRC (Tsukuba, Japan) and American Type Cell Collection (Manassas, VA, USA), respectively. CT26 cells (4 × 10^6) were grown in T75 flask with 20 mL of RPMI medium containing 10% FBS for 3 days. The culture medium (CT26-CM) was collected and centrifuged at 400 g for 5 min. RAW264.7 cells (2.4 × 10^5) were incubated in 24-well plate in the presence or absence of KS-133 (KS-133 concentration = 1, 3, or 10 μM, DMSO concentration = 0.1%) with 20% CT26-CM/DMEM for 3 days. During the incubation, medium containing KS-133 was replaced every day. mRNA extraction was performed using ISOGEN (Nippon Gene, Tokyo, Japan) on day 3 after CT26-CM incubation, and cDNA was prepared. The gene expression of M1 markers (TNF-α, iNOS, CXCL10), M2 markers (Mrc-1, IL-1rn, CCL22), and β-actin was analyzed by real-time polymerase chain reaction (PCR) using a 7300 Fast Real-Time PCR System (Applied Biosystems, Thermo Fisher Scientific, MA, USA,) and Light Cycler Fast Start DNA Master kit (Applied Biosystems). The relative mRNA expression was determined using the 2^−ΔΔCt method. ΔΔCt was calculated using control group data.
It has been reported that when RAW264.7 cells are incubated in the presence of the culture supernatant of CT26 cells, M1-type macrophage marker mRNA expression is decreased, and that of M2-type macrophages is increased. Using this assay system, we evaluated whether KS-133 affect the mRNA expression of TNFα, iNOS, and CXCL10 as M1-type macrophage markers and Mrc-1, IL-1Rn, and CCL-22 as M2-type macrophage markers. […] Therefore, VIPR2 inhibition by KS-133 changes the macrophage polarity toward M1.
Fig 1 Variation of marker gene expression in M1- and M2-type macrophages in the presence of KS-133. Results are presented as the mean ± SEM (n = 3 independent experiments using separately treated cultures, *p < 0.05 vs. control by two-way ANOVA).

[2] = cited from earlier work
From the text: Vasoactive intestinal peptide receptor 2 (VIPR2) is a class-B G protein-coupler receptor that participates in various physiological function by interacting with its ligand vasoactive intestinal peptide (VIP). VIP–VIPR2 signaling has attracted attention as a drug target in the fields of central nervous system diseases, oncology, and immunity. In 2021, we generated 13-mer bicyclic peptide KS-133 as a potent and selective antagonist to VIPR2 [1]. […] Generally, peptides are rapidly degraded by proteases, and even if they are resistant to degradation, they are prematurely excreted from the body via renal filtration. Thus, frequent dosing is needed, reducing patients’ quality of life. KS-133 is stable in plasma for at least 24 h. Unfortunately, daily dosing is required for the anti-tumor effects of KS-133 in vivo. A versatile method for improving the pharmacokinetics of peptides is conjugation with polyethylene glycol, but this req ...

[3] = KS-133 10 μM, 0.1% DMSO, 2^−ΔΔCt, n = 3, p < 0.05 vs control

## CC[C@H](C)[C@H](NC(=O)[C@H](CC(C)C)NC(=O)[C@@H]1CC(=O)NCCCC[C@@H]2NC(=O)[C@@H]3CCCN3C(=O)[C@H](CC(C)C)NC(=O)[C@H](Cc3ccc(O)cc3)NC(=O)[C@@H]3CCCN3C(=O)[C@@H]3CCCN3C(=O)[C@@H](NC(C)=O)CSSC[C@H](NC(=O)[C@H](CC(C)C)NC(=O)[C@H](Cc3ccc(O)cc3)NC2=O)C(=O)N1)C(N)=O [KS-133] (Ac-CPPYLPKYLCDLI-NH2; disulfide 1-10; lactam 7-11)
[1]; [3]
  mRNA expression level of CXCL10 (M1-type macrophage marker): significantly enhanced
  mRNA expression level of iNOS (M1-type macrophage marker): significantly enhanced
[1]
  CCL22 expression (M2-type macrophage marker): no effect
  IL-1Rn expression (M2-type macrophage marker): no effect
[1]; n = 3, p < 0.05 vs control
  mRNA expression of Mrc-1 (M2-type macrophage marker): significantly decreased
[2]
  protease degradation: resistant to protease degradation
[2]; plasma
  time stable in plasma: at least 24 h
